# Measurements taken from patent publication US7166744B2, “Retinoid derivatives and methods for producing said compounds and anti-cancer pharmaceutical composition comprising said compounds” (Chebigen Co., Ltd., priority 2001, dated 2007).
# Tested on: colon cancer cells
# Experiment: MTT proliferation assay, colon cancer cells (Table 1)
# Assay type: cell-based
# Settings: 48 hours, concentration required for 50% growth inhibition, read-out: IC50, activities of various retinoid derivatives in colon cancer cells
# Description: The effects of test compounds on proliferation of various cancer cells was examined by 3-(4,5-dimethylthiazol-2-yl)-2,5-diphenyltetrazolium bromide (MTT, Sigma) assay in a dose dependent manner. In the MTT assay, colon, liver, cervix, ovary, and breast cancer cell lines were treated with test compounds at various concentrations. Living cancer cells reduce MTT to dark blue MTT formazan that would be measured by absorbance.
# Colon cancer cells, HCT116, DLD-1 and HT29, cervix cancer cells, HeLa and CaSki, ovary cancer cells, SKOV-3, 2774 and OVCAR-3, liver cancer cells, SK-Hep-1, PLCPRF5 and HepG2, and breast cancer cells, ZR75-1 and MDA-MB 231 were seeded at an initial density of 3000 cells per well in 96-well plates. After attachment of cells to the walls of the wells, the medium containing fresh retinoid was treated with various concentrations (0.5 μM, 1 μM, 2.5 μM, 5 μM, 10 μM) for 48 hours. 50 μl of MTT solution (2 mg/ml in PBS) was added to cell culture media. The reaction micture was incubated at 37° C. in a 5% CO2 atmosphere for 4 hours. The supernatant was removed and 150 μl of DMSO was added. The optical density was measured spectrophotometrically at 550 nm. […] For other retinoid derivatives according to the present invention, absorbances were measured by this procedure and IC50 values, concentrations required for 50% growth inhibition, were determined.
row,Molecule,IC50 [µM]
1,"2-[(2E,4E,6E,8E)-3,7-Dimethyl-9-(2,6,6-trimethylcyclohex-1-enyl)-nona-2,4,6,8-tetraenoylamino]-5-hydroxyphenyl(dimethylamino)acetate [KCBG23]",3.5
2,"4-(4-[(2E,4E,6E,8E)-3,7-dimethyl-9-(2,6,6-trimethyl-1-cyclohexenyl)-2,4,6,8-nonatetraenoyl]aminophenoxy)-4-oxobutanoic acid [KCBG32]",5
3,"4-(4-[(2E,4E,6E,8E)-3,7-dimethyl-9-(2,6,6-trimethyl-1-cyclohexenyl)-2,4,6,8-nonatetraenoyl]aminophenoxy)-oxo-heptanedioic acid [KCBG53]",6.5
4,"4-(4-[(2E,4E,6E,8E)-3,7-dimethyl-9-(2,6,6-trimethyl-1-cyclohexenyl)-2,4,6,8-nonatetraenoyl]aminophenoxy)-oxo-hexanedioic acid [KCBG51]",4.5
5,"CC1=C(/C=C/C(C)=C/C=C/C(C)=C/C(=O)Nc2ccc(O)cc2O)C(C)(C)CCC1 [KCBG08, (2E,4E,6E,8E)-[3,7-dimethyl-9-(2,6,6-trimethylcyclohex-1-enyl)-nona-2,4,6,8-tetraenoyl]-(2,4-dihydroxy)phenylamide]",> 100
6,"CCCC(=O)Oc1ccc(NC(=O)C=C(C)C=CC=C(C)C=CC2=C(C)CCCC2(C)C)c(OC(=O)CCC)c1 [KCBG09, 5-Butyryloxy-2-[3,7-dimethyl-9-(2,6,6-trimethylcyclohex-1-enyl)-nona-2,4,6,8-tetraenoylamino]-phenylbutanoate]",10 to 20
7,"CCC(=O)Oc1cc(O)ccc1NC(=O)/C=C(C)/C=C/C=C(C)/C=C/C1=C(C)CCCC1(C)C [KCBG15, 2-[(2E,4E,6E,8E)-3,7-dimethyl-9-(2,6,6-trimethylcyclohex-1-enyl)-nona-2,4,6,8-tetraenoylamino]-5-hydroxyphenylpropionate]",8
8,"CC(=O)C(=O)Oc1cc(O)ccc1NC(=O)/C=C(C)/C=C/C=C(C)/C=C/C1=C(C)CCCC1(C)C [KCBG22, 2-[(2E,4E,6E,8E)-3,7-dimethyl-9-(2,6,6-trimethylcyclohex-1-enyl)-nona-2,4,6,8-tetraenoylamino]-5-hydroxyphenyl-2-oxopropionate]",6
9,"CCCC(=O)Oc1ccc(NC(=O)/C=C(C)/C=C/C=C(C)/C=C/C2=C(C)CCCC2(C)C)cc1OC(=O)CCC [KCBG34, 2-Butyryloxy-5-(2E,4E,6E,8E)-[3,7-dimethyl-9-(2,6,6-trimethylcyclohex-1-enyl)-nona-2,4,6,8-tetraenoylamino]phenylbutanoate]",3
10,"CCCC(=O)Oc1cc(NC(=O)/C=C(C)/C=C/C=C(C)/C=C/C2=C(C)CCCC2(C)C)ccc1O [KCBG35, 5-(2E,4E,6E,8E)-[3,7-dimethyl-9-(2,6,6-trimethylcyclohex-1-enyl)-nona-2,4,6,8-tetraenoylamino]-2-hydroxyphenylbutanoate]",2
11,"CCC(=O)C(=O)Oc1cc(O)ccc1NC(=O)/C=C(C)/C=C/C=C(C)/C=C/C1=C(C)CCCC1(C)C [KCBG38, 2-[(2E,4E,6E,8E)-3,7-dimethyl-9-(2,6,6-trimethylcyclohex-1-enyl)-nona-2,4,6,8-tetraenoylamino]-5-hydroxyphenyl 2-oxobutanoate]",2
12,"CC1=C(/C=C/C(C)=C/C=C/C(C)=C/C(=O)Nc2ccc(O)cc2OC(=O)CC(C)O)C(C)(C)CCC1 (stereo not drawn) [KCBG39, 2-[(2E,4E,6E,8E)-3,7-dimethyl-9-(2,6,6-trimethylcyclohex-1-enyl)-nona-2,4,6,8-tetraenoylamino]-5-hydroxyphenyl-3-hydroxybutanoate]",3
13,"CCCC(=O)Nc1ccc(NC(=O)/C=C(C)/C=C/C=C(C)/C=C/C2=C(C)CCCC2(C)C)cc1 [KCBG40, (2E,4E,6E,8E)-[3,7-dimethyl-9-(2,6,6-trimethylcyclohex-1-enyl)-nona-2,4,6,8-tetraenoylamino]-(4-butyrylamino)phenylamide]",0.6
14,"CCCC(=O)Nc1cc(NC(=O)/C=C(C)/C=C/C=C(C)/C=C/C2=C(C)CCCC2(C)C)ccc1OC(=O)CCC [KCBG42, 2-Butyrylamino-4-(2E,4E,6E,8E)-[3,7-dimethyl-9-(2,6,6-trimethylcyclohex-1-enyl)-nona-2,4,6,8-tetraenoylamino]-phenylbutanoate]",7
15,"CCCCS(=O)(=O)Oc1ccc(NC(=O)/C=C(C)/C=C/C=C(C)/C=C/C2=C(C)CCCC2(C)C)cc1 [KCBG43, 4-[(2E,4E,6E,8E)-3,7-dimethyl-9-(2,6,6-trimethyl-1-cyclohexenyl)-2,4,6,8-nonatetraenoyl]aminophenyl-1-butanesulfonate]",4
16,"CC(=O)C(=O)Oc1ccc(NC(=O)/C=C(C)/C=C/C=C(C)/C=C/C2=C(C)CCCC2(C)C)cc1 [KCBG45, 4-[(2E,4E,6E,8E)-3,7-dimethyl-9-(2,6,6-trimethyl-1-cyclohexenyl)-2,4,6,8-nonatetraenoyl]aminophenyl-2-oxopropanoate]",7
17,"CCC(=O)C(=O)Oc1ccc(NC(=O)/C=C(C)/C=C/C=C(C)/C=C/C2=C(C)CCCC2(C)C)cc1 [KCBG47, 4-[(2E,4E,6E,8E)-3,7-dimethyl-9-(2,6,6-trimethyl-1-cyclohexenyl)-2,4,6,8-nonatetraenoyl]aminophenyl-2-oxobutanoate]",1.8
18,"CC1=C(/C=C/C(C)=C/C=C/C(C)=C/C(=O)Nc2ccc(OC(=O)CCC(=O)O)cc2)C(C)(C)CCC1 [KCBG50, 4-(4-[(2E,4E,6E,8E)-3,7-dimethyl-9-(2,6,6-trimethyl-1-cyclohexenyl)-2,4,6,8-nonatetraenoyl]aminophenoxy)-4-oxobutanoic acid]",5.5
19,"CC(=O)NC(CCC(N)=O)C(=O)Oc1ccc(NC(=O)/C=C(C)/C=C/C=C(C)/C=C/C2=C(C)CCCC2(C)C)cc1 (stereo not drawn) [KCBG52, 4-[(2E,4E,6E,8E)-3,7-dimethyl-9-(2,6,6-trimethylcyclohex-1-enyl)-nona-2,4,6,8-tetraenoylamino]phenyl-2-acetylamino-4-carbamoylbutanoate]",7
20,"CC1=C(/C=C/C(C)=C/C=C/C(C)=C/C(=O)Nc2ccc(OC(=O)CCCCCCC(=O)O)cc2)C(C)(C)CCC1 [KCBG54, 4-(4-[(2E,4E,6E,8E)-3,7-dimethyl-9-(2,6,6-trimethyl-1-cyclohexenyl)-2,4,6,8-nonatetraenoyl]aminophenoxy)-oxo-octanedionic acid]",3.5

# Tested on: HCT116 colon cancer cells
# Experiment: DAPI staining of nuclei, HCT116
# Assay type: cell-based
# Settings: HCT116, 5 μM, 36 h
# Description: By DAPI (4,6-diamidino-2-phenylindole) staining assay for staining DNA in cellular nucleus, nuclear condensation and fragmentation, characteristic features of apoptosis, were observed. […] In FIG. 4, the control represents non-treated cells. The sub-G1 DNA contents of colon cancer HTC116 cells and breast cancer MCF-7 cells were measured by FACS (Fluorescence-Activated Cell Sorter) assay to quantify the apoptosis (FIG. 5). Finally, in order to further characterize the apoptosis observed in retinoid derivative-treated cells, the cleavage of apoptosis-related proteins, including PARP (poly(ADP-ribose)polymerase) and CPP32 (caspase-3) by Western blotting. […] PARP cleavage occurred in a time-dependent manner, in parallel with the induction of apoptosis (FIG. 6B). C in FIG. 6 represents the result of Western blotting of non-treated cells.
# Meanwhile, HPR which is a precursor during the synthesis process of KCBG60 is known to induce apoptosis. Considering that the cells aggregated into small spherical mass upon treatment with KCBG60, KCBG60 is expected to induce apoptosis. In order to confirm apoptosis induced by KCBG60 once again, KCBG60-treated HCT116 cells were stained with DAPI and observed for nuclear condensation, an indicative of apoptosis (FIG. 12).
row,Molecule,nuclear condensation and fragmentation (DAPI)
1,"CCCC(=O)Nc1ccc(NC(=O)/C=C(C)/C=C/C=C(C)/C=C/C2=C(C)CCCC2(C)C)cc1 [KCBG40, (2E,4E,6E,8E)-[3,7-dimethyl-9-(2,6,6-trimethylcyclohex-1-enyl)-nona-2,4,6,8-tetraenoylamino]-(4-butyrylamino)phenylamide]",largely showed nuclear fragmentation

# Tested on: MMP-1 mRNA expression
# Experiment: RT-PCR of MMP-1 mRNA in HCT116
# Assay type: cell-based
# Settings: HCT116, 1 μM, 36 hours
# Description: (§1) Previously, it was shown that the synthetic retinoid derivatives inhibit the transcriptional activity of AP-1. Also, it is well known that MMP (matrix metalloproteinase), a main target gene of AP-1 is involved in metastasis of cancer cells. Therefore, the inhibitive effects of the retinoid derivatives on metastasis of cancer was examined by RT-PCR analysis. Colon cancer HCT116 cells were treated with 1 μM retinoid for 36 hours. RNA was isolated from the cells and mRNA expression levels of MMP-1, -2 and -3 were analyzed by RT-PCR. […] As the control, GAPDH was used and it was confirmed that its expression was not affected by retinoid. Meanwhile, the expression level of MMP-3 was affected weakly by KCBG40, intermediately by KCBG41 but strongly by KCBG10 (FIG. 9).
# (§2) RNA was isolated from the cells and mRNA expression levels of MMP-1, -2 and -3 were analyzed by RT-PCR (FIG. 14).
row,Molecule,inhibition of MMP-1 mRNA expression
1,"CCCC(=O)Nc1ccc(NC(=O)/C=C(C)/C=C/C=C(C)/C=C/C2=C(C)CCCC2(C)C)cc1 [KCBG40, (2E,4E,6E,8E)-[3,7-dimethyl-9-(2,6,6-trimethylcyclohex-1-enyl)-nona-2,4,6,8-tetraenoylamino]-(4-butyrylamino)phenylamide]",affected very little

# Tested on: MMP-2 mRNA expression
# Experiment: RT-PCR of MMP-2 mRNA in HCT116
# Assay type: cell-based
# Settings: HCT116, 1 μM, 36 hours
# Description: as §1, §2
row,Molecule,inhibition of MMP-2 mRNA expression
1,"CCCC(=O)Nc1ccc(NC(=O)/C=C(C)/C=C/C=C(C)/C=C/C2=C(C)CCCC2(C)C)cc1 [KCBG40, (2E,4E,6E,8E)-[3,7-dimethyl-9-(2,6,6-trimethylcyclohex-1-enyl)-nona-2,4,6,8-tetraenoylamino]-(4-butyrylamino)phenylamide]",affected very little

# Tested on: MMP-3 mRNA expression
# Experiment: RT-PCR of MMP-3 mRNA in HCT116
# Assay type: cell-based
# Settings: HCT116, 1 μM, 36 hours
# Description: as §1
row,Molecule,effect on MMP-3 mRNA expression level
1,"CCCC(=O)Nc1ccc(NC(=O)/C=C(C)/C=C/C=C(C)/C=C/C2=C(C)CCCC2(C)C)cc1 [KCBG40, (2E,4E,6E,8E)-[3,7-dimethyl-9-(2,6,6-trimethylcyclohex-1-enyl)-nona-2,4,6,8-tetraenoylamino]-(4-butyrylamino)phenylamide]",weakly
